One compound from patent US20050038111A1, “Pharmaceutical formulation comprising bicalutamide” (priority 2001, published 2005) can be followed below.

Structures are written as SMILES. Counter-ions that a name gives are not always drawn.

The nature of data set [1]: Crystallinity assessment by X-ray powder diffraction (XRPD). It is filed as physicochemical. Here is the method:
Dispersion prepared from a solution of bicalutamide and tamoxifen citrate.
X-ray diffraction analysis was performed according to standard methods which can be found in e.g. Bunn, C. W. (1948), Chemical Crystallography, Clarendon Press, London; or Klug, H. P. & Alexander, L. E. (1974), X-Ray Diffraction Procedures, John Wiley and Sons, New York.

A short description of data set [2]: pH shift dissolution test (SGF pH 1.5 then pH 6.5). In kind it is physicochemical. Conditions: 1 h SGF pH 1.5 then 1 h at pH 6.5.

Turning to `CC/C(=C(\c1ccccc1)c1ccc(OCCN(C)C)cc1)c1ccccc1` [tamoxifen citrate, (Z)-2-[p-(1,2-diphenylbut-1-enyl)phenoxy]ethyldimethylamine], in data set [1], the “crystalline tamoxifen citrate by XRPD” value was “crystalline”. Moreover, the “tamoxifen in solution post shift” value in data set [2] was “approx. 80%”.
